From patent US8796244B2, “Imidazopyridine derivatives as inhibitors of receptor tyrosine kinases” (Astex Therapeutics Ltd, priority 2008, dated 2014)
Counter-ions that a name gives are not always drawn. Like-named read-outs stand apart in the source and are kept apart here.

Test system: parental wild-type Ba/F3 cells
Test: Ba/F3 (WT) cell proliferation assay (Alamar Blue)
Type: cell-based
Conditions: Mus musculus; for inhibition at 3 µM / inhibition at 10 µM / inhibition at 1 µM: BaF3, read-out: BaF3 WT prolif, % inhibition
[1] = BaF3, 72 hours, Alamar Blue, read-out: BaF3 WT prolif
[2] = BaF3, 72 h, read-out: BaF3 WT prolif (μM)

Row | Compound | IC50 [1] [µM] | also measured
1 | O=C(NCC(F)(F)F)Nc1cc(Br)cc(-c2cnc3cc(-c4ccnc(C(F)(F)F)n4)ccn23)c1 [Compound 294] |  | inhibition at 3 µM: 22%
2 | CCNC(=O)Nc1cccc(-c2cnc3cc(-c4ncc(C(F)(F)F)c(N)n4)ccn23)c1 [Example 235] | 1.2 | 
3 | CNC(=O)c1cc(C)nc(-c2ccn3c(-c4cccc(NC(=O)NCC(F)(F)F)c4)cnc3c2)n1 [Example 222] | 2.3 | 
4 | O=C(NCC(F)(F)F)Nc1cc(Cl)cc(-c2cnc3cc(-c4ccnc(C(F)(F)F)n4)ccn23)c1 [Compound 297] | 5.5 | 
5 | CCNC(=O)Nc1cccc(-c2cnc3cc(-c4ccc(F)c(C)n4)ccn23)c1 [Example 228] | 5.1 | 
6 | O=C(Nc1cccc(-c2cnc3cc(-c4nncs4)ccn23)c1)NC1CC1 [Example 158, 1-Cyclopropyl-3-[3-(7-[1,3,4]thiadiazol-2-yl-imidazo[1,2-a]pyridin-3-yl)-phenyl]-urea] | 2.9 | 
7 | CC(=O)N1CCN(c2ccc(-c3ccn4c(-c5cccc(NC(=O)NCC(F)(F)F)c5)cnc4c3)cn2)CC1 [Example 145, 1-(3-{7-[6-(4-Acetyl-piperazin-1-yl)-pyridin-3-yl]-imidazo[1,2-a]pyridin-3-yl}-phenyl)-3-(2,2,2-trifluoro-ethyl)-urea] | 0.82 | 
8 | O=C(NCC(F)(F)F)Nc1cc(F)cc(-c2cnc3cc(-c4ncccn4)ccn23)c1 [Compound 302] |  | inhibition at 10 µM: 0%
9 | Cc1nc(N)cc(-c2ccn3c(-c4cccc(NC(=O)NCC(F)(F)F)c4)cnc3c2)n1 [Example 208] |  | inhibition at 10 µM: 21%
10 | Cc1cccnc1-c1ccn2c(-c3cccc(NC(=O)NCC(F)(F)F)c3)cnc2c1 [Example 104, 1-{3-[7-(3-Methyl-pyridin-2-yl)-imidazo[1,2-a]pyridin-3-yl]-phenyl}-3-(2,2,2-trifluoro-ethyl)-urea formate] |  | IC50 [2]: 0.4 µM
11 | O=C(NCC(F)(F)F)Nc1cccc(-c2cnc3cc(-c4cnn(C5CN(CCO)C5)c4)ccn23)c1 [Example 217] |  | inhibition at 3 µM: 37%
12 | CC(C)(C(=O)NC1CC1)n1cc(-c2ccn3c(-c4cccc(NC(=O)NCC(F)(F)F)c4)cnc3c2)cn1 [Example 71, N-Cyclopropyl-2-[4-(3-{3-[3-(2,2,2-trifluoro-ethyl)-ureido]-phenyl}-imidazo[1,2-a]pyridin-yl)-pyrazol-1-yl)-isobutyramide] | 1.5 | 
13 | NC(=O)c1ccnc(-c2ccn3c(-c4cccc(NC(=O)NCC(F)(F)F)c4)cnc3c2)c1 [Example 209] |  | inhibition at 10 µM: 0%
14 | Cc1cn2nc(-c3ccn4c(-c5cc(NC(=O)NCC(F)(F)F)cc(OC(C)C)c5)cnc4c3)sc2n1 [Example 247] |  | inhibition at 1 µM: 36%
15 | COc1cnc(Cl)nc1-c1ccn2c(-c3cccc(NC(=O)NCC(F)(F)F)c3)cnc2c1 [Example 139, 1-{3-[7-(2-Chloro-5-methoxy-pyrimidin-4-yl)-imidazo[1,2-a]pyridin-3-yl]-phenyl}-3-(2,2,2-trifluoro-ethyl)-urea] | 3.6 | 
16 | CC(C)c1cnc(N)nc1-c1ccn2c(-c3cccc(NC(=O)NCC(F)(F)F)c3)cnc2c1 [Example 242] | 1.7 | 
17 | O=C(NCC(F)(F)F)Nc1cccc(-c2cnc3cc(-c4nccc(N5CC(O)C5)n4)ccn23)c1 [Example 203] |  | inhibition at 10 µM: 30%
18 | Cc1cn2nc(-c3ccn4c(-c5cccc(NC(=O)NCC(F)(F)F)c5)cnc4c3)sc2n1 [Example 225] |  | inhibition at 10 µM: 0%
19 | CCOc1cnc(-c2ccn3c(-c4cccc(NC(=O)NCC(F)(F)F)c4)cnc3c2)nc1 [Example 240] |  | inhibition at 10 µM: 17%

Row | Compound | IC50 [1] [µM] | also measured
20 | Cc1cc(Cl)nnc1-c1ccn2c(-c3cccc(NC(=O)NCC(F)(F)F)c3)cnc2c1 [Example 136, 1-{3-[7-(6-Chloro-4-methyl-pyridazin-3-yl)-imidazol[1,2-a]pyridin-3-yl]-phenyl}-3-(2,2,2-trifluoro-ethyl)-urea] | 0.44 | 
21 | Cn1cncc1/C=C/c1ccn2c(-c3cccc(NC(=O)NCC(F)(F)F)c3)cnc2c1 [Example 155, 1-(3-{7-[(E)-2-(3-Methyl-3H-imidazol-4-yl)-vinyl]-imidazo[1,2-a]pyridin-3-yl}-phenyl)-3-(2,2,2-trifluoro-ethyl)-urea] |  | inhibition at 3 µM: 28%
22 | COc1ccc(-c2ccn3c(-c4cccc(NC(=O)NCC(F)(F)F)c4)cnc3c2)nc1 [Example 204] | 0.82 | 
23 | O=C(NCC(F)(F)F)Nc1cncc(-c2cnc3cc(-c4cnn(C5CNC5)c4)ccn23)c1 [Example 123, 1-{5-[7-(1-Azetidin-3-yl-1H-pyrazol-4-yl)-imidazo[1,2-a]pyridin-3-yl]-pyridin-3-yl}-3-(2,2,2-trifluoro-ethyl)-urea formate] |  | IC50 [2]: 8.9 µM
24 | CC(F)(F)c1cnc(-c2ccn3c(-c4cccc(NC(=O)NCC(F)(F)F)c4)cnc3c2)nc1 [Compound 293] |  | inhibition at 3 µM: 36%
25 | CC(C)(O)c1cccc(-c2ccn3c(-c4cccc(NC(=O)NCC(F)(F)F)c4)cnc3c2)c1 [Compound 320] | 0.71 | 
26 | Cc1nc(-c2ccn3c(-c4cccc(NC(=O)NCC(F)(F)F)c4)cnc3c2)cc(N2CCN(CCO)CC2)n1 [Example 194] |  | inhibition at 3 µM: 26%
27 | O=C(NCC(F)(F)F)Nc1cccc(-c2cnc3cc(-c4ccc(CCO)cn4)ccn23)c1 [Example 122, 1-(3-{7-[5-(2-Hydroxy-ethyl)-pyridin-2-yl]-imidazo[1,2-a]pyridin-3-yl}-phenyl)-3-(2,2,2-trifluoro-ethyl)-urea] | 2.4 | 
28 | Cc1cnnc(-c2ccn3c(-c4cccc(NC(=O)NCC(F)(F)F)c4)cnc3c2)n1 [Example 142, 1-{3-[7-(5-Methyl-[1,2,4]triazin-3-yl)-imidazo[1,2-a]pyridin-3-yl]-phenyl}-3-(2,2,2-trifluoro-ethyl)-urea] | 1.1 | 
29 | CC(C)c1cc(N)nc(-c2ccn3c(-c4cccc(NC(=O)NCC(F)(F)F)c4)cnc3c2)n1 [Compound 323] |  | inhibition at 1 µM: 0%
30 | Cc1cc(-c2ccn3c(-c4cccc(NC(=O)NCC(F)(F)F)c4)cnc3c2)nc(C(F)(F)F)n1 [Example 237] | 0.12 | 
31 | O=C(NCC(F)(F)F)Nc1cccc(-c2cnc3cc(-c4cc(F)ccn4)ccn23)c1 [Example 103, 1-{3-[7-(4-Fluoro-pyridin-2-yl)-imidazo[1,2-a]pyridin-3-yl]-phenyl}-3-(2,2,2-trifluoro-ethyl)-urea] | 0.078 | 
32 | Cc1nc(-c2ccn3c(-c4cccc(NC(=O)NCC(F)(F)F)c4)cnc3c2)ccc1F [Example 172] | 3.4 | 
33 | CCOC(=O)Nc1nc(-c2ccn3c(-c4cccc(NC(=O)NCC(F)(F)F)c4)cnc3c2)ncc1F [Compound 315] |  | inhibition at 10 µM: 35%
34 | O=C(NCC(F)(F)F)Nc1cccc(-c2cnc3cc(-c4cc(C(F)(F)F)ncn4)ccn23)c1 [Example 227] | 3.6 | 
35 | CSc1nc(N)cc(-c2ccn3c(-c4cccc(NC(=O)NCC(F)(F)F)c4)cnc3c2)n1 [Example 205] | 9.8 | 
36 | CC(=O)c1cnc(-c2ccn3c(-c4cccc(NC(=O)NCC(F)(F)F)c4)cnc3c2)nc1 [Compound 292] |  | inhibition at 10 µM: 38%
37 | O=C(NCC(F)(F)F)Nc1cccc(-c2cnc3cc(-c4nccc(N5CCNCC5)n4)ccn23)c1 [Compound 269] |  | inhibition at 3 µM: 0%
38 | Cc1cc(-c2ccn3c(-c4cccc(NC(=O)NCC(F)(F)F)c4)cnc3c2)nc(C(C)C)n1 [Example 226] |  | inhibition at 10 µM: 40%

Row | Compound | IC50 [1] [µM] | also measured
39 | Cc1nc2cc(-c3ccn4c(-c5cccc(NC(=O)NCC(F)(F)F)c5)cnc4c3)ccc2s1 [Example 219] | 3.5 | 
40 | O=C(NCC(F)(F)F)Nc1cccc(-c2cnc3cc(-c4cc(=O)[nH]cn4)ccn23)c1 [Example 184] |  | inhibition at 10 µM: 22%
41 | CNC(=O)c1ccnc(-c2ccn3c(-c4cccc(NC(=O)NCC(F)(F)F)c4)cnc3c2)n1 [Example 220] | 1.5 | 
42 | CN(C)c1cc(-c2ccn3c(-c4cccc(NC(=O)NCC(F)(F)F)c4)cnc3c2)nc(C(F)(F)F)n1 [Example 214] | 2.6 | 
43 | Nc1cc(-c2ccn3c(-c4cccc(NC(=O)NCC(F)(F)F)c4)cnc3c2)ncc1C(F)(F)F [Example 234] | 6.4 | 
44 | Nc1nccnc1-c1ccn2c(-c3cccc(NC(=O)NCC(F)(F)F)c3)cnc2c1 [Example 84, 1-{3-[7-(3-Amino-pyrazin-2-yl)-imidazo[1,2-a]pyridin-3-yl]-phenyl}-3-(2,2,2-trifluoro-ethyl)-urea] | 1.4 | 
45 | Cn1ccnc1/C=C/c1ccn2c(-c3cccc(NC(=O)NCC(F)(F)F)c3)cnc2c1 [Example 189] | 3.4 | 
46 | O=C(NCC(F)(F)F)Nc1cccc(-c2cnc3cc(-c4nccc(C(=O)N5CCOCC5)n4)ccn23)c1 [Example 221] |  | inhibition at 3 µM: 21%
47 | Nc1nc(-c2ccn3c(-c4cc(Cl)cc(NC(=O)NCC(F)(F)F)c4)cnc3c2)ncc1F [Compound 300] |  | inhibition at 10 µM: 0%
48 | Nc1cnc(-c2ccn3c(-c4cccc(NC(=O)NCC(F)(F)F)c4)cnc3c2)nc1N [Compound 312] |  | inhibition at 10 µM: 3%
49 | O=C(NCC(F)(F)F)Nc1cccc(-c2cnc3cc(/C=C/CO)ccn23)c1 [Example 206] | 2.9 | 
50 | COc1ncccc1-c1ccn2c(-c3cccc(NC(=O)NCC(F)(F)F)c3)cnc2c1 [Example 150, 1-{3-[7-(2-Methoxy-pyridin-3-yl)-imidazo[1,2-a]pyridin-3-yl]-phenyl}-3-(2,2,2-trifluoro-ethyl)-urea] | 1.7 | 
51 | COc1cncnc1-c1ccn2c(-c3cccc(NC(=O)NCC(F)(F)F)c3)cnc2c1 [Example 140, 1-{3-[7-(5-Methoxy-pyrimidin-4-yl)-imidazo[1,2-a]pyridin-3-yl]-phenyl}-3-(2,2 ,2-trifluoro-ethyl)-urea] |  | inhibition at 10 µM: 7.1%
52 | CNc1cc(-c2ccn3c(-c4cccc(NC(=O)NCC(F)(F)F)c4)cnc3c2)nc(SC)n1 [Example 218] |  | inhibition at 10 µM: 30%
53 | O=C(NCC(F)(F)F)Nc1cccc(-c2cnc3cc(-c4cnc(O)cn4)ccn23)c1 [Example 105, 1-{3-[7-(5-Hydroxy-pyrazin-2-yl)-imidazo[1,2-a]pyridin-3-yl]-phenyl}-3-(2,2,2-trifluoro-ethyl)-urea hydrochloride] |  | inhibition at 10 µM: 16%
54 | O=C(NCC(F)(F)F)Nc1cc(-c2cnc3cc(-c4ncccn4)ccn23)cc(C(F)(F)F)c1 [Compound 301] | 2.81 | 
55 | CCOC(=O)c1cnc(-c2ccn3c(-c4cccc(NC(=O)NCC(F)(F)F)c4)cnc3c2)nc1N [Compound 287] | 0.99 | 
56 | Nc1nc(-c2ccn3c(-c4cccc(NC(=O)NCC(F)(F)F)c4)cnc3c2)ncc1OCCO [Compound 316] |  | inhibition at 10 µM: 0%
